Molecular target: NAMPT (Mus musculus, UniProt Q99KQ4)
Experiment: co-crystal structure
Format: binding

NAMPT, sequence (Q99KQ4 whole entry): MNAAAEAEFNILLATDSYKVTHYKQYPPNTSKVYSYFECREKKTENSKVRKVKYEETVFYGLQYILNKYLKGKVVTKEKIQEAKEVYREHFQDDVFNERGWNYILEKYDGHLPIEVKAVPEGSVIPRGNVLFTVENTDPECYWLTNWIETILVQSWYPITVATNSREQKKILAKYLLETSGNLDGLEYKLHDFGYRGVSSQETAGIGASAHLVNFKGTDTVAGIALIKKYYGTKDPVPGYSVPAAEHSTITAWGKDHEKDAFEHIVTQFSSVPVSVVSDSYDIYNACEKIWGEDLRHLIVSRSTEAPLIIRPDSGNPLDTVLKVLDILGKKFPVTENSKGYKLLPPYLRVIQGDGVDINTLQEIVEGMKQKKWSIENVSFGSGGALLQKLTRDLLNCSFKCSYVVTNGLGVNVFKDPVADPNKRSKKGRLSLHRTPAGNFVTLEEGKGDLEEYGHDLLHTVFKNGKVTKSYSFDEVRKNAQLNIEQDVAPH

For O=C(NCc1ccc([C@@H]2O[C@H](COP(=O)(O)O)[C@@H](O)[C@H]2O)cc1)Nc1ccc(S(=O)(=O)c2ccccc2)cc1 [9a, ((2R,3S,4R,5S)-3,4-Dihydroxy-5-(4-((3-(4-(phenylsulfonyl)phenyl)ureido)methyl)phenyl)tetrahydrofuran-2-yl)methyldihydrogenphosphate], the co-crystal structure was “Compound 9a bound to dimeric NAMPT (PDB: 7Q8T)”.
